In US20170182087A1, “MAIN CHAIN POLYAMINES” (priority 2014, published 2017):

System: human renal proximal tubule epithelial cells (RPTEC)
Experiment: Cytotoxicity Assay, RPTEC Cells
Assay type: cell-based
Description: Cells were plated at 3,000 cells/well (RPTEC) in 96-well plates and were incubated overnight at 37° C. The compounds were added to the wells, and the cells were incubated for 4 days. Alomar Blue was added to one set of plates and incubated for 4 hours. The plates were read when the compound was added (time zero) and at the end of the study. Fluorescence was read using 530 nm (excitation) and 590 nm (emission) according to the manufacturer's instructions.

| Substance | Cytotoxicity (Kidney Epithelial IC50) |
| --- | --- |
| Poly(1,3-bis N-(1,4-dimethybenzene)piperidin-4-yl)propane) | 1.5 µg/mL |
| Poly(1,3-bis(1,5-dimethybenzene)piperidin-4-yl)propane) | 1.5 µg/mL |
| Poly(1,3-bis(1-pentyl-piperidin-4-yl)propane [4,4′-Trimethylenedipiperidine/Glutaraldehyde (1:1.5) <10K] | 4 µg/mL |
| Poly(1,3-bis(1-pentyl-piperidin-4-yl)propane [4,4′-Trimethylenedipiperidine/Glutaraldehyde (1:1.5) >10K] | 5 µg/mL |
| Poly(1,3-bis(1-pentyl-piperidin-4-yl)propane [4,4′-Trimethylenedipiperidine/Glutaraldehyde (1:2.5) <10K] | 2 µg/mL |
| Poly(1,3-bis(1-pentyl-piperidin-4-yl)propane [4,4′-Trimethylenedipiperidine/Glutaraldehyde (1:3.5) <10K] | 2 µg/mL |
| Poly(1,3-bis(1-pentyl-piperidin-4-yl)propane [4,4′-Trimethylenedipiperidine/Glutaraldehyde <10K] | 331 µg/mL |
| Poly(1,3-bis(1-pentyl-piperidin-4-yl)propane [4,4′-Trimethylenedipiperidine/Glutaraldehyde >10K] | 1.5 µg/mL |
| Poly(1,3-bis(1-pentyl-piperidin-4-yl)propane [Poly(4,4′-Trimethylenedipiperidine/Glutaraldehyde (1:1)), <1] | 2 µg/mL |
| Poly(1,3-bis(1-pentyl-piperidin-4-yl)propane [Poly(4,4′-Trimethylenedipiperidine/Glutaraldehyde (1:1)), >1] | 2 µg/mL |
| Poly((1,1′-dipentyl)-4,4-dipiperidine) [4,4′-dipiperidine/Glutaraldehyde <10K] | 1.5 µg/mL |
| Poly((1,1′-dipentyl)-4,4-dipiperidine) [Poly(1:1 Dipiperidine:Glutaraldehyde); <10K molecular weight] | 2 µg/mL |
